Experimental data taken from patent publication US8143419B2, “Trisubstituted 1,2,4-triazoles” (Janssen Pharmaceutica N. V., priority 2006, dated 2012).

What was measured:
hα7-wt nAChR = target: T1, hα7-wt nAChR (Homo sapiens, UniProt P36544); assay: Ca2+ flux imaging (FDSS) (Protocol B), PAM activity with choline as agonist; format: cell-based; settings: for EC50: "<5" = no top plateau at maximal concentration; for Emax: read-out: % efficacy
T1 construct: expressed in transfected cells
Experimental: • Hanks buffered saline solution (HBSS, Invitrogen, Belgium), supplemented with 10 mM HEPES (Invitrogen, Belgium), CaCl2 to a final concentration of 5 mM, 0.1% Bovine serum albumin (Sigma-Aldrich NV, Belgium). b) Calcium-Sensitive Dye—Fluo-4AM • Fluo-4AM (Molecular Probes, USA) was dissolved in DMSO containing 10% Pluronic acid (Molecular Probes, USA) to give a stock solution which was diluted in assay buffer supplemented with 5 mM probenicid (Sigma, Aldrich NV, Belgium) to give a final concentration of 2 μM. c) 384-Well Plates • Black 384 well plate black/clear plates, PDL pre-coated (Corning, Incorporated, USA) d) Calcium Flux Measurement
A Functional drug screening system (FDSS, Hamamatsu) was used to measure intracellular free-calcium flux signals.
Monolayers of hα7-wt nAChR-expressing cells were grown in multi-well plates, in particular black-sided, transparent bottomed 384 well plates coated with poly-D-lysine for 24 hours prior to loading with a fluorescent calcium indicator, in a particular embodiment loading with fluo-4AM for up to 120 minutes.
PAM activity was detected in real time by applying the compounds to be tested to the loaded cells along with a α7 nicotinic receptor agonist during constant monitoring of cellular fluorescence in a FDSS. Compounds giving peak fluorescent responses greater than the response due to agonist alone, were considered to be α7 nAChR PAM's. In a particular embodiment, the α7 nicotinic receptor agonist was choline, a more particular embodiment choline applied at a sub-maximal concentration of 100 μM. In a further setting of the present invention the compounds to be tested were applied prior to the α7 nicotinic receptor agonist, in a particular embodiment up to 10 minutes prior to the agonist.
A control response to choline was calculated on each plate from the difference in peak in fluorescence in wells receiving either choline or assay buffer alone. Compounds of the present invention were tested at a concentration range from 0.01 μM to 30 μM. Compounds were considered to have an interesting activity when they potentiated the choline signal at least with 500% when tested at a concentration of 30 μM (the efficacy of 100 μM choline was defined as 100% in the absence of a PAM). The compounds also have a potentiating effect on the response to choline when measured by whole-cell patch clamp electrophysiology in GH4C1 cells stably over-expressing the human wild-type α7 receptor.

T1 sequence (P36544 23-502): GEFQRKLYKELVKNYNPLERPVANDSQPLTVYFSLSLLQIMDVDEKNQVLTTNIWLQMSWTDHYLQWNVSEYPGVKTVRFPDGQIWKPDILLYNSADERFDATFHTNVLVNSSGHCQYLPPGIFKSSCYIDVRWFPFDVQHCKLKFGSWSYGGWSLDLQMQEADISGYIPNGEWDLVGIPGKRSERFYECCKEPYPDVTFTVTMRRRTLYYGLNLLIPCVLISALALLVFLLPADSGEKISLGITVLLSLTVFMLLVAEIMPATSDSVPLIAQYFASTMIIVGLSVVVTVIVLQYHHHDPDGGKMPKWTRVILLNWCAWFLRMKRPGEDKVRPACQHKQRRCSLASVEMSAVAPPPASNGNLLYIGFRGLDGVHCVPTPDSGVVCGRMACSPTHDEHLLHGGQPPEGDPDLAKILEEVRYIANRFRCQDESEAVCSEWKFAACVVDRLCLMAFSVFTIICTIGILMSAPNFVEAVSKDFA

melting point [°C]	EC50 (hα7-wt nAChR) [nM]	Emax (hα7-wt nAChR) [%]	SMILES
147.8	6310	650	CC(=O)c1ccc(-c2nc(Nc3ccc(F)c(F)c3)nn2C[C@H](C)O)cn1 [Compound 50]
117.4	1260	717	Cc1nc(CCn2nc(Nc3ccc(F)c(C(F)(F)F)c3)nc2-c2ccnc(Cl)c2)no1 [Compound 56]
168.8	794	–	CN(C)C(=O)CCCn1nc(Nc2ccc(F)c(C(F)(F)F)c2)nc1-c1ccnc(Cl)c1 [Compound 68]
160	1260	–	COc1ccc(-c2nc(Nc3cccc(C(F)(F)F)c3)nn2CCO)cn1 [Compound 72]
145.6	2510	–	OCCn1nc(Nc2cccc(C(F)(F)F)c2)nc1-c1ccc(N2CCOCC2)nc1 [Compound 77]
166.3 to 168.3	200	–	COCCNC(=O)Cn1nc(Nc2cccc(C(F)(F)F)c2)nc1-c1ccc2c(c1)OCCO2 [Compound 82]
171.1	2510	–	OCCn1nc(Nc2ccc(F)c(C(F)(F)F)c2)nc1-c1ccncc1 [Compound 87]
179	3160	–	CNc1ccc(-c2nc(Nc3ccc(F)c(C(F)(F)F)c3)nn2CCO)cn1 [Compound 92]
126.5	2510	–	FCCn1nc(Nc2ccc(F)c(C(F)(F)F)c2)nc1-c1ccc(C2CC2)nc1 [Compound 96]
164.5	> 10000	–	CNc1cc(-c2nc(Nc3ccc(F)c(C(F)(F)F)c3)nn2C[C@H](C)O)ccn1 [Compound 98]
247.1	2510	–	CNC(=O)Cn1nc(Nc2ccc(F)c(C(F)(F)F)c2)nc1-c1ccc(C)nc1 [Compound 108]
255.1	126	–	CNC(=O)Cn1nc(Nc2ccc(F)c(C(F)(F)F)c2)nc1-c1ccc(OC)nc1 [Compound 110]
236.2	251	–	CCOc1ccc(-c2nc(Nc3ccc(F)c(C(F)(F)F)c3)nn2CC(=O)NC)cn1 [Compound 111]
207.1	> 10000	–	CNC(=O)Cn1nc(Nc2ccc(F)c(C(F)(F)F)c2)nc1-c1ccc(NCCOC)nc1 [Compound 115]
242.4	2510	–	COc1ncccc1-c1nc(Nc2ccc(F)c(C(F)(F)F)c2)nn1CC(=O)NC1CC1 [Compound 121]
174	2000	988	CC(C)(O)c1cc(-c2nc(Nc3ccc(F)c(C(F)(F)F)c3)nn2CC(=O)NC2CC2)ccn1 [Compound 122]
172.3	2510	–	Cc1cc(-c2nc(Nc3ccc(F)c(C(F)(F)F)c3)nn2CC(=O)N2CCCC2)ccn1 [Compound 124]
190	631	–	CN(C)C(=O)CCn1nc(Nc2ccc(F)c(C(F)(F)F)c2)nc1-c1cccnc1 [Compound 125]
171.5	1260	–	Cc1ncccc1-c1nc(Nc2ccc(F)c(C(F)(F)F)c2)nn1CCC(=O)N(C)C [Compound 126]
185.4	200	–	Cc1ccc(-c2nc(Nc3ccc(F)c(C(F)(F)F)c3)nn2CCC(=O)N(C)C)cn1 [Compound 127]

More lines, now with the values behind:

SMILES	melting point [°C]	EC50 (hα7-wt nAChR) [nM]	Emax (hα7-wt nAChR) [%]
C/C(N)=N/OC(=O)CCn1nc(Nc2ccc(F)c(C(F)(F)F)c2)nc1-c1ccncc1 [Compound 53]	190.2	5010	–
CN(C)C(=O)CCn1nc(Nc2ccc(F)c(C(F)(F)F)c2)nc1-c1ccnc(CNC(=O)C(F)(F)F)c1 [Compound 59]	182.4	158	669
O=C(Cn1nc(Nc2ccc(F)c(C(F)(F)F)c2)nc1-c1ccnc(CO)c1)NC1CC1 [Compound 61]	242.2	5010	–
COCc1cc(-c2nc(Nc3ccc(F)c(C(F)(F)F)c3)nn2CC(=O)NC2CC2)ccn1 [Compound 62]	204.6	316	–
CCc1cc(-c2nc(Nc3cccc(C(F)(F)F)c3)nn2CCO)ccn1 [Compound 70]	167.9	2000	–
CC(C)c1ccc(-c2nc(Nc3cccc(C(F)(F)F)c3)nn2CCO)cn1 [Compound 71]	177.1	794	601
COc1cc(-c2nc(Nc3cccc(C(F)(F)F)c3)nn2CCO)ccn1 [Compound 73]	165.4	3160	–
CC(C)Oc1cc(-c2nc(Nc3cccc(C(F)(F)F)c3)nn2CCO)ccn1 [Compound 74]	159	1260	–
CN(C)c1cc(-c2nc(Nc3cccc(C(F)(F)F)c3)nn2CCO)ccn1 [Compound 75]	164.2	2510	–
OCCn1nc(Nc2cccc(C(F)(F)F)c2)nc1-c1ccc(C2CC2)nc1 [Compound 76]	152.9	501	–
COc1cc(-c2nc(Nc3cccc(C(F)(F)F)c3)nn2CCC(=O)N(C)C)cc(C)n1 [Compound 83]	187.2	200	–
COc1cc(-c2nc(Nc3cccc(C(F)(F)F)c3)nn2CCC(=O)N(C)C)cc(Cl)n1 [Compound 84]	177.7	316	–
O=C(CCn1nc(Nc2cccc(C(F)(F)F)c2)nc1-c1ccncc1)N1CCCC1 [Compound 85]	182.2	316	–
CCc1cc(-c2nc(Nc3ccc(F)c(C(F)(F)F)c3)nn2CCO)ccn1 [Compound 88]	183	631	–
OCCn1nc(Nc2ccc(F)c(C(F)(F)F)c2)nc1-c1ccncc1F [Compound 89]	149.4	5010	–
COc1cc(-c2nc(Nc3ccc(F)c(C(F)(F)F)c3)nn2CCO)ccn1 [Compound 90]	177.1	2000	–
CCOc1ccc(-c2nc(Nc3ccc(F)c(C(F)(F)F)c3)nn2CCO)cn1 [Compound 91]	157.9	501	–

SMILES	melting point [°C]	EC50 (hα7-wt nAChR) [nM]	Emax (hα7-wt nAChR) [%]
OCCn1nc(Nc2ccc(F)c(C(F)(F)F)c2)nc1-c1ccc(C2CC2)nc1 [Compound 94]	168	251	–
Cc1cc(-c2nc(Nc3ccc(F)c(C(F)(F)F)c3)nn2C[C@H](C)O)ccn1 [Compound 97]	145.2	3160	–
C[C@H](O)Cn1nc(Nc2ccc(F)c(C(F)(F)F)c2)nc1-c1ccnc(NC2CC2)c1 [Compound 103]	176.5	794	–
C[C@H](O)Cn1nc(Nc2ccc(F)c(C(F)(F)F)c2)nc1-c1ccnc(NCC2CC2)c1 [Compound 104]	145.8	3160	–
C[C@H](O)Cn1nc(Nc2ccc(F)c(C(F)(F)F)c2)nc1-c1cnc2c(c1)OCC2 [Compound 105]	174.4	3980	–
CNC(=O)Cn1nc(Nc2ccc(F)c(C(F)(F)F)c2)nc1-c1ccnc(C)c1 [Compound 107]	265	1000	–
CNC(=O)Cn1nc(Nc2ccc(F)c(C(F)(F)F)c2)nc1-c1ccncc1OC [Compound 109]	234.8	3980	–
CNC(=O)Cn1nc(Nc2ccc(F)c(C(F)(F)F)c2)nc1-c1ccnc(NC)c1 [Compound 112]	259.6	794	–
CNC(=O)Cn1nc(Nc2ccc(F)c(C(F)(F)F)c2)nc1-c1ccc(NC)nc1 [Compound 113]	256.6	2000	–
CNC(=O)Cn1nc(Nc2ccc(F)c(C(F)(F)F)c2)nc1-c1ccncc1NC [Compound 114]	260.8	631	–
CNC(=O)Cn1nc(Nc2ccc(F)c(C(F)(F)F)c2)nc1-c1ccncc1F [Compound 116]	249.5	1260	–
CNC(=O)Cn1nc(Nc2ccc(F)c(C(F)(F)F)c2)nc1-c1ccncc1Cl [Compound 117]	199.2	1000	–
CCNC(=O)Cn1nc(Nc2ccc(F)c(C(F)(F)F)c2)nc1-c1ccncc1C [Compound 118]	238.6	794	–
COc1ccc(-c2nc(Nc3ccc(F)c(C(F)(F)F)c3)nn2CC(=O)NC(C)C)c(OC)c1 [Compound 119]	215 to 219.2	794	974
Cc1ccncc1-c1nc(Nc2ccc(F)c(C(F)(F)F)c2)nn1CC(=O)NC1CC1 [Compound 120]	251	3980	–
CC(=O)c1cc(-c2nc(Nc3ccc(F)c(C(F)(F)F)c3)nn2CC(=O)NC2CC2)ccn1 [Compound 123]	213.2	1260	–
